Patent publication US7732457B2, “Amino-pyridines as inhibitors of β-secretase” (Wyeth LLC, priority 2005, dated 2010)
pIC50: −log10 of the molar value.

Columns and labels:
human BACE1 = human BACE1 (Homo sapiens, UniProt P56817); assay: BACE-1 fluorescent kinetic assay (cleavage of peptide substrate WABC-6); type: biochemical; settings: 10 nM enzyme, 25 μM substrate WABC-6, Na-Acetate pH 4.5, room temperature
Experimental: Evaluation of BACE-1 Binding Affinity of Test Compounds
Fluorescent Kinetic Assay
Dilution and mixing steps: total reaction volume: 100 μL
100 μM substrate dilution in 1×PBS was prepared, and
Fluorescence Readings: Readings at λex 320 nm and λem 420 nm are taken every 40 sec for 30 min at room temperature and the linear slope for substrate cleavage rate (vi) determined.

human BACE1, sequence (P56817 46-501): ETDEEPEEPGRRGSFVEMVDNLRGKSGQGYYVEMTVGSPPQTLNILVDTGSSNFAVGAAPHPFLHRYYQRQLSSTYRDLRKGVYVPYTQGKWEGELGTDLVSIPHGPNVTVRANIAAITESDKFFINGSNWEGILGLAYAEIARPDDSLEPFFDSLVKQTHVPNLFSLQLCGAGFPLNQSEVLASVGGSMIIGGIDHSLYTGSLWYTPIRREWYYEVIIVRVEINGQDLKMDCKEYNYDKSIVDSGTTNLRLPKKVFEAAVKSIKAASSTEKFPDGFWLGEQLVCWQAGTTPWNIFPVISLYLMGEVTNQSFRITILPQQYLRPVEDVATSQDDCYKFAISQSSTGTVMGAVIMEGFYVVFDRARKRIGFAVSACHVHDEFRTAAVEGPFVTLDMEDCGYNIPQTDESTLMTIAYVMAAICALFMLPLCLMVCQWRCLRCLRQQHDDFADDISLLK

SMILES | melting point | pIC50 (human BACE1) | BACE 1 IC50 μM (human BACE1)
Nc1cccc(Cn2c(-c3ccc(Br)cc3)ccc2-c2ccccc2Cl)n1 [Example 4, 6-[2-(4-bromo-phenyl)-5-(2-chloro-phenyl)-pyrrol-1-ylmethyl]-pyridin-2-ylamine] | 154 to 158 °C | 5.30 to 5.96 | –
CCNC(=O)c1ccc(-c2ccc(-c3ccc(F)cc3)n2Cc2cccc(N)n2)cc1 [Example 61, 4-[1-[(6-aminopyridin-2-yl)methyl]-5-(4-fluorophenyl)-1H-pyrrol-2-yl]-N-ethylbenzamide] | 184 to 185 °C | 5.30 to 5.96 | –
Cl.N#CCCCCCOc1ccc(-c2ccc(-c3ccccc3Cl)n2Cc2cccc(N)n2)cc1 [Example 20, 6-{4-[1-(6-Amino-pyridin-2-ylmethyl)-5-(2-chloro-phenyl)-1H-pyrrol-2-yl]-phenoxy}-hexanenitrile hydrochloride] | 98 to 106 °C | 5.30 to 5.96 | –
Nc1cccc(Cn2c(-c3ccc(O)cc3)ccc2-c2ccccc2Cl)n1 [Example 6, 4-[1-(6-Amino-pyridin-2-ylmethyl)-5-(2-chloro-phenyl)-1H-pyrrol-2-yl]-phenol] | 170 to 172 °C | – | D (D = >5.0 μM-0.10 = μM)
Nc1cccc(Cn2c(-c3ccc(NC(=O)c4cccc(Br)c4)cc3)ccc2-c2ccccc2Cl)n1 [Example 2, N-{4-[1-(6-Amino-pyridin-2-ylmethyl)-5-(2-chloro-phenyl)-1H-pyrrol-2-yl]-phenyl}-3-bromo-benzamide] | 116 to 122 °C | – | D (D = >5.0 μM-0.10 = μM)
Cl.N#CCCCCOc1ccc(-c2ccc(-c3ccccc3Cl)n2Cc2cccc(N)n2)cc1 [Example 19, 5-{4-[1-(6-Amino-pyridin-2-ylmethyl)-5-(2-chloro-phenyl)-1H-pyrrol-2-yl]-phenoxy}-pentanenitrile hydrochloride] | 126 to 130 °C | 6.00 to 6.96 | –
Nc1cccc(Cn2c(-c3ccccc3)ccc2-c2ccc(C(=O)NCC3CCCO3)cc2)n1 (stereo not shown) [Example 66, 4-{1-[(6-aminopyridin-2-yl)methyl]-5-phenyl-1H-pyrrol-2-yl}-N-(tetrahydrofuran-2-ylmethyl)benzamide] | 98 to 99 °C | – | D (D = >5.0 μM-0.10 = μM)
CCCCC(=O)Nc1ccc(-c2ccc(-c3ccccc3Cl)n2Cc2cccc(N)n2)cc1 [Example 52, Pentanoic acid {4-[1-(6-amino-pyridin-2-ylmethyl)-5-(2-chlorophenyl)-1H-pyrrol-2-yl]-phenyl}-amide] | 145 to 150 °C | 5.30 to 5.96 | –
CCCOc1ccc(-c2ccc(-c3ccccc3Cl)n2Cc2ccc(OCCO)c(N)n2)cc1 [Example 54, 2-[(2-amino-6-{[2-(2-chlorophenyl)-5-(4-propoxyphenyl)-1H-pyrrol-1-yl]methyl}pyridine-3-yl)oxy]ethanol] | 89 to 92 °C | 6.00 to 6.96 | –
Nc1nc(Cn2c(-c3ccc(Br)cc3)ccc2-c2ccccc2Cl)ccc1OCCO [Example 47, 2-{2-Amino-6-[2-(4-bromo-phenyl)-5-(2-chloro-phenyl)-pyrrol-1-ylmethyl]-pyridin-3-yloxy}-ethanol] | 80 to 82 °C | 6.00 to 6.96 | –
CCOC(=O)c1ccc(-c2ccc(-c3ccccc3)n2Cc2cccc(N)n2)cc1 [Example 58, Ethyl 4-{1-[(6-aminopyridin-2-yl)methyl]-5-phenyl-1H-pyrrol-2-yl}benzoate] | 161 to 162 °C | – | D (D = >5.0 μM-0.10 = μM)
